Test results taken from PMC8741257, “Identification of novel non-toxic and anti-angiogenic α-fluorinated chalcones as potent colchicine binding site inhibitors” (Journal of Enzyme Inhibition and Medicinal Chemistry, 2022).
Where two headings read alike, the source gives them in different places.

Columns and labels:
[1] = test system: MMP of MGC-803 cells; experiment: Mitochondrial membrane potential (JC-1, flow cytometry); assay type: cell-based, human; conditions: 72 nM, 48 h
Protocol: There is a close relationship between mitochondria and apoptosis, and a decrease in mitochondrial membrane potential is one of the irreversible events that occur early in apoptosis cells. Therefore, effect of compound 4c on MMP of MGC-803 cells was examined by cationic JC-1 staining method and flow cytometry.
The cultured cells were spread in 6-well plates with about 1.5 × 10^5 cells per well and incubated overnight at 37 °C. Different concentrations of the 4c were added to the wells, and the incubation was continued for 48 h. The wells were washed twice with JC-1 staining buffer (1×) after resuspension with an appropriate amount of JC-1 staining buffer (1×), flow cytometry assays were performed according to standard procedures

[2] = test system: HUVECs (human umbilical vein endothelial cells); experiment: Wound healing migration assay; assay type: cell-based; conditions: 10 µM, 48 h, control 65%
Protocol: HUVECs (human umbilical vein endothelial cells) grown on Matrigel were commonly used as a tube formation model for studying the physiological and pathological processes of the vascular system in vitro, and a widely studied human endothelial cell type in angiogenesis. The effect of 4c on endothelial cell migration was assessed by using HUVECs. Standardised wounds were made in confluent monolayers of HUVECs and then exposed to compound 4c at 2.5, 5 and 10 µM for 48 h. […] We further evaluated the capacity of 4 s on endothelial cell invasion using a Transwell assay.
(§1) MGC-803 cells and HUVECs were seeded in 24-well plates and cultivated for 24 h at 37 °C. The cells were scribed vertically with a gun tip and washed with PBS to remove dead cells. The containing different concentrations of 4c were added to the scratched monolayers. The migrated cells were photographed under a light microscope at indicated time points from the scratch. Take a picture and use the image J software to calculate the area of the cell scratches.

[3] = test system: six human cancer cell lines (MCF-7, MGC-803, HepG2, Hela, A549, U937); experiment: Antiproliferative activity, summary over the tested cancer cell lines; assay type: cell-based; conditions: read-out: IC50
Protocol: (§2) A549, MGC-803, MCF-7, HepG2 and Hela cells were seeded at the appropriate cell line density (3 × 10^3 to 4 × 10^3 cells/well). The cells were then incubated at 37 °C for 24 h in a humidified 5%CO2 in 96-well plates prior to experiments. After a further 72 h of incubation, cell proliferation was quantified with SRB ([…]) to determine the number of surviving cells. The absorbance at 560 nm was measured by microplate. The experiment was repeated three times, and the data were listed in the form of mean and standard deviation.
(§3) MGC-803 cells were collected and seeded into 96 well plates at a density of 8000/well. The mediums containing drugs and cell suspension were added into the well. The cells were incubated in 5% CO2 incubator at 37 °C for 72 h. Each well was added 10 µL CCK8 solution, and the incubation time was 3–4 h. The absorbance value at 450 nm was measured by microplate reader. Data are calculated with GraphPad Prism5 software.

[4] = test system: p-Cdc2, CyclinB1 and P21 in MGC-803 cells; experiment: Western blot of G2/M regulatory proteins; assay type: cell-based, human; conditions: 18, 36, 72 nM, 48 h
Text: Cdc2 kinase, a member of Ser/Thr protein family, is considered as a driving force of G2/M transition. Activation of Cdc2 catalysed the phosphorylation of a variety of substrate proteins, thus promoting cell transition from G2 phase to M phase. Cyclin B1 plays a vital role to control cell transition from G2 to M phase. P21 also effectively regulates cell cycle progress by increasing the intracellular G2/M phase ratio. Therefore, the expression of cell cycle checkpoint protein was investigated.
The protein levels in MGC-803 cells were assessed via western blot analysis. Exponentially growing MGC-803 cells were seeded at a density of 6 × 10^5/dishes and incubated overnight. Then 18, 36, 72nΜ of 4c were added in triplicate for 48 h incubation. After the cells were washed with cold PBS, the supernatant was removed. The supernatant was collected by centrifuging at 12,000 g for 10 min at 4 °C. The protein concentration in the supernatant was determined by using a BSA protein assay kit. Samples were prepared in SDS-PAGE loading buffer after BSA analysis to quantify proteins, then boiled for 10 min at 100 °C. Western blot analyses were conducted after separation by SDS-PAGE electrophoresis and transfer to nitrocellulose filter (NC) membranes. Immunoblotting was performed according to the antibody manufacturers’ recommendations.

[5] = test system: MGC-803 cells; experiment: Wound healing migration assay; assay type: cell-based, human; conditions: 72 nM, after 48 h, control approximately 64%
Protocol: Metastasis is one of the leading causes of morbidity and mortality of cancer patients. Microtubules-targeting inhibitors have also been reported to interfere with cell migration and invasion. Accordingly, the in vitro would healing assay and Transwell assays were performed to investigate the inhibitory effect of compound 4c on the migration and invasion of MGC-803 cells. As shown Figure 8(A,C), the scratches healing rate in the control group was approximately 64%. By contrast, the cells treated with 4c have much smaller scratched areas recovery at all concentrations. […] Cell invasion is an important malignant behaviour during cancer metastasis. In Tanswell assay, MGC-803 cells were seeded into upper chambers with pre-coated Matrigel stimulating base membrane in order to assess the cellular invasion.
as §1

[6] = test system: MGC-803 (human gastric cancer cells); experiment: Antiproliferative activity (SRB / CCK-8 assay); assay type: cell-based; conditions: mean ± SD
Protocol: MCF-7, MGC-803, Hela and HepG-2 cell lines were cultured in a base medium (90% DMEM and 10% FBS), A549 and U937 were cultured in a base medium (90% PRMI-1640 and 10% FBS) at 37 °C, 5% CO2 and a saturated humidity atmosphere. All the mediums were supplemented with 10% FBS and 1% […]/streptomycin (all cells were purchased from Shanghai Institutes for Biological Sciences, Chinese Academy of Sciences, Shanghai, China).
as §2, §3

Which “JC-1 green fluorescence intensity (lower gate)” value ([1]; control 7.13) does the source give for `COc1cc(C(=O)/C(F)=C/c2c[nH]c3cc(Br)ccc23)cc(OC)c1OC` [4c, (Z)-3–(6-bromo-1H-indol-3-yl)-2-fluoro-1–(3,4,5-trimethoxyphenyl)prop-2-en-1-one] here?
Its value is 55.6%.

What about the “JC-1 red fluorescence intensity (upper gate)” value ([1]; control 92.4) of the same compound?
The value was 41.3%.

What about the wound closure rates [2] of the same compound?
Its wound closure rates is 11%.

What about the IC50 ([3]; against five of the tested cell lines, range) of the same compound?
The IC50 was 25 to 202 nM.

What about the IC50 ([3]; against six cell lines, range as worded in text) of the same compound?
Its IC50 is 25 to 254 nM.

And the “Cyclin B1 expression” value [4]?
Its value is “caused a decrease in Cyclin B1”.

And the P21 expression [4]?
Its P21 expression is “increased the expression of tumour suppressor protein P21”.

And the “phosphorylation levels of Cdc2” value [4]?
The value was “decrease the phosphorylation levels of Cdc2 in a concentration-dependent manner”.

And the “migration rates (scratch healing)” value [5]?
Its value is 10%.

What about the IC50 ([6]; Table 2, triplicate) of the same compound?
Its IC50 is 57 ± 6 nM.

And the IC50 ([6]; three separated experiments, 72 h)?
Its IC50 is 57.1 ± 6 nM.
